SMILES | melting point [°C]
COC(=O)c1ccc(C(=O)OC)nc1 | 163 to 164
N#Cc1ccc(CCc2ccc(C#N)cc2)cc1 | 198 to 203
Cc1nn(C)c(Cl)c1C(=O)O | 195 to 198
CC12CCC(C1(C)C)C(CC(Br)Cc1ccccc1)(C1(CC(Br)Cc3ccccc3)C(=O)C3(C)CCC1C3(C)C)C2=O (centres undefined) | 215
COc1c(Cl)c(Cl)c(Cl)c(Cl)c1OC | 90
Cn1ncc(C(N)=O)c1N | 231 to 232
COC(=O)c1cc(OC)c(O)c(OC)c1 | 106
CN1CCN(c2cccc(C(=O)O)c2)CC1 | 187 to 190
CC(=O)OCC(=O)C1CCC2C3CC=C4CC(O)CCC4(C)C3CCC12C (centres undefined) | 184
OCC(O)C(O)C(OC1OC(CO)C(O)C(O)C1O)C(O)CO (centres undefined) | 151
Oc1cc(O)cc(Cl)c1 | 118
N#CC=C(Cl)C#N | 60.5
CCc1cccc(CC)c1NC(=O)CN(CC(=O)O)CC(=O)O | 187 to 190
O=CCCl | -16.3
Brc1cc(Br)c(Oc2cc(Br)c(Br)cc2Br)cc1Br | 160 to 163
Cc1c(C)c(N)c(C)c(C)c1N | 150 to 153
NC(=S)NN=C1C2CCCC1C1(O)CCCCC1C2 (centres undefined) | 184
CC(=O)C1=CCCCC1 | 73
FC(F)(F)C(F)(F)C(F)(F)I | -95
O=C(O)CCCCCCCCCCCCCCO | 97 to 99
N#Cc1cnc(N2CCCCC2)nc1N | 220 to 222
CC12CCC(CC/C1=N\Nc1ccc([N+](=O)[O-])cc1[N+](=O)[O-])C2(C)C (centres undefined) | 232 to 233
Cc1cc(C)c(CS)c(C)c1CS | 65 to 66
O=C1C(Cl)=C(Cl)C(=O)C(Cl)=C1Cl | 290
Cc1nc(Cl)nc(N)c1N | 249 to 252
Cn1c(Cl)cc(=O)n(C)c1=O | 110

SMILES | melting point [°C]
O=C(Cl)c1sc(Br)c2c1OCCO2 | 154 to 155
CCOC(=O)C1C(c2ccc(C)cc2)C(C(=O)OCC)C(O)(C(F)(F)F)NC1(O)C(F)(F)F (centres undefined) | 93
O=C(O)C1Cc2cc3c(cc21)OCO3 (centres undefined) | 150
O=C(Cl)COc1ccc(Cl)cc1 | 19
O=[N+]([O-])c1cc(O)ccc1Cl | 127
CC12CCC(C(Cl)C1=O)C2(C)C (centres undefined) | 106
CC12CCC3(CC1CCC1C2CCC2(C)C1CCC2(C)O)OCCO3 (centres undefined) | 192 to 193
C=CC(=O)OCCOCC | -47
Cc1cc(=O)oc(C)c1C(=O)O | 154 to 156
CN(C)CCc1c[nH]c2ccccc12 | 46
NC(=O)CCSCCC(N)=O | 183 to 186
CN(C)C(C)(C)C | -90
N#Cc1cc(Br)ccc1F | 79
CC(C=CC=C(C)C(=O)O)=CC=CC=C(C)C=CC=C(C)C(=O)O | 286
Cc1ccc(S(=O)(=O)NCCNS(=O)(=O)c2ccc(C)cc2)cc1 | 160
Clc1c(Cl)c(Cl)c2ccccc2c1Cl | 198
COc1ccc(C(C=C(SC)SC)=C(C#N)C#N)cc1 | 149 to 152
CC(C)NC(=O)C(Br)C(C)(C)C (centres undefined) | 128 to 130
CC12CCCC1C1CCC(CC(=O)O)C(C)(CC(=O)O)C1CC2 (centres undefined) | 229
O=C(O)CCCCCCCCCCCCC1C=CCC1 (centres undefined) | 68.5
COc1cc(C=O)cc(Br)c1O | 164 to 166
Cc1c(Br)c(Br)c(O)c(Br)c1Br | 195 to 200
NNC(=O)c1ccc(O)cc1O | 241
O=C(O)Cc1cccs1 | 63
FC(Cl)C(Cl)(Cl)Cl (centres undefined) | -95.3
O=C(O)CCCCCCCCCCCCCCC(=O)O | 124 to 126

SMILES | melting point [°C]
Cn1ncc(Br)c1NC(=O)CCl | 137 to 139
Oc1ccc(Oc2ccc(O)cc2)cc1 | 163 to 168
CCCCOC(=O)C(=O)OCCCC | -29
CCCCCCCC[C@@H](O)CO | 60 to 62
CC1CCCC(C)(C)C1 (centres undefined) | -65.7
COc1cc2c(c3oc(=O)c4c(c13)CCC4=O)C1CCOC1O2 (centres undefined) | 288
CC(=O)c1ccc(N2CCNCC2)cc1 | 107 to 110
C=CC(=O)OC1CC2CCC1(C)C2(C)C (centres undefined) | 97
Fc1cc(Br)ccc1Br | 34
O=C(O)[C@@H]1CCCC[C@H]1C(=O)c1ccc(Cl)cc1 (relative stereo) | 157 to 161
CC1CC(=O)c2c(F)c(F)cc3c(=O)c(C(=O)O)cn1c23 (centres undefined) | 323 to 325
CCCc1c(NCC)ccc(C(C)=O)c1O | 45 to 48
COCCOC1=C(N2CC2)C(=O)C(OCCOC)=C(N2CC2)C1=O | 80
CCCCCCN1CCCC1=O | 4
O=[N+]([O-])c1cc(S(=O)(=O)Cl)ccc1Cl | 60
CCCCc1c(C)nc(N)nc1Cl | 162
O=[N+]([O-])c1ccc(S(=O)(=O)N2CCOCC2)cc1 | 173 to 175
CS(=O)(=O)c1csc(C(=O)Cl)c1Cl | 181 to 185
NC(=O)CC[C@H](NC(=O)C(F)(F)F)C(=O)O | 146 to 150
CCOc1ccc2c3c1OC1C(O)C=CC4C(C2)N(C)CCC341 (centres undefined) | 200
CCCCCCCCc1ccc(NC(=O)c2ccc(CC)cc2)cc1 | 109
BrCOCBr | -34
CC12CCCC1C1CCC3CC(=O)CCC3(C)C1CC2 (centres undefined) | 102
COC(=O)c1ccsc1N | 79
CCCOC1CCC2C3CCC4=CC(O)CCC4(C)C3CCC12C (centres undefined) | 123 to 127
CC(C)C1=CC2=CCC3C(C)(C(=O)O)CCCC3(C)C2CC1 (centres undefined) | 174

Next, values leading:

melting point [°C] | SMILES
167 | COc1ccc(-c2cc3nc(C)cc(C(F)(F)F)n3n2)cc1
126 | COc1ccc(N2C(=O)C3ON=C(C(=O)c4ccc(C)cc4)C3C2=O)cc1 (centres undefined)
59 | Oc1ccc(SC(F)(F)F)cc1
168 to 169 | NNC(=O)C(O)(c1ccccc1)c1ccccc1
194 to 198 | CCOC(=O)c1c(=S)ncn2c1[nH]c1ccccc12
158 | FC(F)(F)c1cc(-c2cccs2)nc2cc(-c3cccs3)nn12
201 to 205 | N#Cc1ccc2c(c1)COC2=O
164 | c1ccc2c(c1)-c1ccc3ccc4cccc5cc-2c1c3c45
55 | FC(F)(F)Sc1ccc(CBr)cc1
191 | O=[N+]([O-])c1cc([N+](=O)[O-])c(C(Cl)=Cc2ccccc2)cc1/C=C\c1ccccc1
168 | COc1ccc(/C=C(\C(N)=O)c2nc3ccccc3s2)cc1
271 | O=C1NN=C(C(F)(F)F)C1=NNc1cc(-c2ccccc2)n[nH]1
206 to 207 | COc1ccc(NC(=S)NNC(=O)c2nn(-c3ccccc3)nc2C)cc1
202 to 203 | CC(=O)Oc1ccccc1C1NC(=O)NC(C)=C1C(=O)OCc1ccccc1 (centres undefined)
38.5 | CCC(=O)C=Cc1ccccc1
189 | FC(F)(F)c1ccc2c(c1)Nc1ccccc1S2
86 | c1ccc(OCc2ccc(CCN3CCOCC3)cc2)cc1
205 to 208 | CCN(CC)c1ccc2cc(-c3nc4ccccc4s3)c(=O)oc2c1
152 | O=C(NC(=O)c1ccccc1)c1ccccc1
114 | CC(C)(C)OC(=O)CN=C(c1ccccc1)c1ccccc1
160 | O=C1C=CC(=Nc2ccc(O)cc2)C=C1
261 to 263 | COc1ccc(-n2c(=S)[nH]c(=O)c3cccnc32)cc1
84 to 86 | O=Cc1ccccc1OCc1ccccc1Cl
48 | O=C(c1ccccc1)C1(O)CCCCC1
210 | CCCCCNc1ccc(NCCCCC)c2c1C(=O)c1ccccc1C2=O
154 | CC(C)(OCc1ccc(-c2ccc(Cl)cc2)cc1)C(=O)O

melting point [°C] | SMILES
208 | O=C(O)CCC(=O)c1ccc2c(c1)-c1cccc3cccc-2c13
208 | Cc1ccc(N/N=C(/C#N)c2nc(-c3ccc(Cl)cc3)cs2)cc1
208 | Cc1ccc(C(=O)O)cc1I
68 | c1cncc(-c2cccnc2)c1
128 | COc1ccc(-c2onc(C(=O)c3ccc([N+](=O)[O-])cc3)c2S(=O)(=O)c2ccccc2)cc1
122 | CC(=O)CCc1ccc(CCC(C)NC(=O)c2ccccc2)cc1 (centres undefined)
93 | Cc1nc(-c2cccc(C(=O)Cl)c2)no1
160 | c1ccc2c(-c3cccc4ccccc34)cccc2c1
93 to 94 | OCc1csc2ccc(Cl)cc12
117 to 119 | O=C(c1ccccc1)c1cccc(O)c1
66 | N#Cc1ccc(Cl)c(C(F)(F)F)c1
290 | Oc1cc(C(F)(F)F)nc2ccc(Br)cc12
251 to 254 | O=C1Nc2c(Cl)ccc(Cl)c2C1=O
34 to 36 | FC(F)(F)c1cc(N=C=S)ccc1Cl
94 to 97 | OCc1nccn1Cc1ccccc1
272 to 273 | Nc1c([N+](=O)[O-])ccc2ncccc12
152 | COc1ccccc1C1Nn2c(nnc2-c2ccc([N+](=O)[O-])cc2)S1 (centres undefined)
130 | Oc1ccc(Cl)c2cccnc12
269 | CCc1c(C(=O)O)c(=O)cnn1-c1ccc(Cl)cc1
200 | Clc1nc2ccccc2[nH]1
153 to 159 | CC(CO)(NC(=O)c1ccccc1)C(=O)O (racemic)
227 | Cc1cc(=O)oc2cc(N)ccc12
87 to 88 | O=Cc1ccc(-c2ccc(OC(F)(F)F)cc2)o1
96 to 97 | CC1(c2ccccc2)CC(C(=NOCC(O)CN2CCN(c3ccccc3)CC2)c2cc3ccccc3o2)C1 (centres undefined)
80 to 81 | O=C(Cl)c1ccc2c(c1)OCO2

Source: a melting point compilation (Tetko et al.)
